Literature values, collected in paper PMC2694617 (Journal of medicinal chemistry, 2009).
Read-outs that look alike come from different tables or passages of the source.

Legend:
[1] = target: T1, human NTS1 (Homo sapiens, UniProt P30989)
[2] = ref [6],[11],[18],[19]
[3] = tested on: rat model of inflammatory pain; conditions: in vivo
[4] = target: T1, human NTS1; remark: listed apart in the source

T1 sequence (P30989 whole entry): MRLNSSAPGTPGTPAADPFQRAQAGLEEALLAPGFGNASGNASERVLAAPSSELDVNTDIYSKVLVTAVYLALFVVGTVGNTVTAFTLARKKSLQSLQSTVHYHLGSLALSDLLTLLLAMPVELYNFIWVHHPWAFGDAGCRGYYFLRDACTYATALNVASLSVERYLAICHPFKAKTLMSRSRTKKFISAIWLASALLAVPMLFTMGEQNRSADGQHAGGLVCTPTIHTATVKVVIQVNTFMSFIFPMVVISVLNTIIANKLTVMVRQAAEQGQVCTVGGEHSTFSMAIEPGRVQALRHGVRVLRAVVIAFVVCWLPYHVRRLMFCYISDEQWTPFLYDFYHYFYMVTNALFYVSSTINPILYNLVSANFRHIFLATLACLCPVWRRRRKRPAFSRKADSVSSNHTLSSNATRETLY

(N-methyl-Arg)-Lys-Pro-(L-neo-Trp)-(tert-Leu)-Leu (RKPWLL) [NT69L]
Kd ([1]; ref [11]): 1.55 nM

(N-methyl-Arg)-Lys-Pro-(L-neo-Trp)-(tert-Leu)-Leu [NT69L]
analgesic activity (ref [6],[11],[18],[19]): potent analgesic
BBB penetration [2]: penetrates the BBB

NT: endogenous neuropeptide; full-length, unmodified NT
analgesic activity (mediated spinally and/or supraspinally by NT receptors, ref [5],[6]): potent analgesic activity

contulakin-G
potency [3]: picomolar potency

cyclo(KKPYILKKPYIL) [JMV2012] [listing 1 of 2 here]
Kd ([1]; ref [12]): 150 nM

cyclo(KKPYILKKPYIL) [JMV2012] [listing 2 of 2 here]
analgesic activity (previously described, ref [12]): analgesic

neurotensin (from UniProt P30990)
Ki [4]: 0.5 nM
